One experiment deals with T1, decorin (Bos taurus, UniProt P21793).
T1 construct: Decorin from bovine fetal skin was purified and stored in 4 M guanidine hydrochloride; from tissue; host or cells: decorin from bovine fetal skin; DbpA made in E. coli JM101
Kind of experiment: Inhibition ELISA: decorin attachment to DbpA-coated wells. Format: binding, bovine. As to conditions: 5 μg inhibitor pre-incubated with biotin-conjugated decorin, FIG. 3. Here is the method: Immulon-1 microtiter plate wells were coated with 0.4 μg of DbpA in 50 μl of PBS over night at 4° C. The wells were washed and then blocked as described above. During the blocking step, 0.12 μg/ml of biotin-conjugated decorin was pre-incubated at 37° C. with 5 μg of each DbpA-derived peptide or DbpA. After washing, 100 μl of the biotin conjugated decorin/inhibitor mixture was added to the wells and incubated for 1 h. After washing, the wells were incubated with AP-conjugated streptavidin and developed as described above.
Decorin from bovine fetal skin was purified and stored in 4 M guanidine hydrochloride at −80° C. and dialyzed extensively against PBS before use. Decorin was labeled with digoxigenin-3-O-methylcarbonyl-ε-aminocaproic acid-N-hydroxy-succinimide ester (digoxigenin) (Boehringer Mannheim, Indianapolis. Ind.) according to the manufacturer's instructions and stored at −20° C. To label decorin with biotin, 7.5 mg of NHS-LC-Biotin (sulfosuccinimidyl-6-(biotinamido) hexanoate) (Pierce, Rockford, Ill.) was dissolved in 100 μl of dimethyl sulfoxide and combined with 0.5 mg of decorin and 0.5 ml of 0.2 M sodium borate (pH 8.0) in a total reaction volume of 1 ml.
Confirmation of the critical binding sites in DbpA for decorin and of the biophysical stability of these peptides was tested in an inhibition ELISA. DbpA, peptides P2-P9, chemically modified peptides P2 Mod-P9 Mod, and an irrelevant peptide from the Staphylococcus aureus collagen-binding adhesin, CNA4 (OSKITVDNTKNTIDVTIQG) (SEQ ID 36) were used as inhibitors of decorin attachment to DbpA-coated wells.
(In an ELISA, binding on a coated surface is turned into a signal by an enzyme label.)

A further experiment deals with recombinant DbpA. Nature of the experiment: Delayed-type hypersensitivity (DTH) to DbpA, footpad swelling in immunized mice. Format: in vivo, B. burgdorferi. The note with it: C3H/HeJ mice immunized with 20 μg, challenged with 2 μg recombinant DbpA in footpad, 24 h. Here is the method: (§1) Mice were immunized with recombinant DbpA (SEQ ID 1), P2 (SEQ ID 3), P4 (SEQ ID 5), P5 (SEQ ID 6), P4/P5 (SEQ ID 5/SEQ ID 6), P9 (SEQ ID 10), or the corresponding lysine modified counterparts (P2 Mod, P4 Mod, P5 Mod or P9 Mod) using the immunization schedule established by Hanson (11). Briefly, mice were immunized with 20 μg of protein or peptide in complete Freund's adjuvant (CFA) (Week 1), boosted at week 4 with the same dose in incomplete Freund's adjuvant (IFA) and infected at week 6.
Native C3H/HeJ mice immunized with DbpA (SEQ ID 1), P2 (SEQ ID 3), P4 (SEQ ID 5), P5 (SEQ ID 6), P4/P5 (SEQ ID 5/SEQ ID 6), P9 (SEQ ID 10), or the corresponding lysine modified counterparts (P2 Mod, P4 Mod, P5 Mod or P9 Mod) were challenged with 2 μg of recombinant DbpA in PBS (50 μl/footpad) 7 weeks after the initial immunization. All footpads were measured before and 24 h after challenge using a spring-loaded micrometer (Mitutoyo, Tokyo, Japan) as described (23). The mice were anesthetized as described above during footpad measurements and injections. Swelling was determined by subtracting the footpad measurements before challenge from those taken 24 h after challenge.
DTH is an in vivo method of testing T cell-dependent immune responses that are manifested by inflammation at the site of antigenic challenge. Mice immunized with DbpA (SEQ ID 1), P2 (SEQ ID 3), P4 (SEQ ID 5), P5 (SEQ ID 6), P4/P5 (SEQ ID 5/SEQ ID 6) combined, P9 (SEQ ID 10), or the corresponding lysine-modified peptides were challenged in the footpad with 2 μg of recombinant DbpA (SEQ ID 1). Footpad measurements were taken before and after challenge as described above. DbpA (SEQ ID 1)-immunized mice developed a significant footpad swelling of 53.3±3.5 (not shown) compared to mice immunized with adjuvant alone or naive mice receiving only the DbpA (SEQ ID 1) challenge. Peptide-immunized mice, with the exception of P2 (SEQ ID 3), also developed a significant DTH response to DbpA (SEQ ID 1) compared to the lysine-modified controls.

For experiment [1], the system named is B. burgdorferi strain B31. Kind of experiment: Arthritis assessment, histopathology of hind tibiotarsal joints of immunized infected mice. Type of experiment: in vivo. The note with it: for Mean Arthritis Rating: severity score 0-4 by neutrophil infiltrate; for Mean Arthritis Rating / % Incidence (arthritis): day 14 post infection; for % Incidence (arthritis): immunized mice, tibiotarsal joint histology. As for the experimental part: as §1
Mice (15 mice/group) were anesthetized with Metofane (methoxyflurane; Pitman-Moore, Mundelein, Ill.) and 10 mice/ group were infected i.d. at the base of the tail with 10^4 Borrelia in 100 μl of media 6 six weeks after the first immunization. The remaining 5 mice/group were tested for a DTH response to recombinant DbpA. Following infection, mice were bled 7 and 14 days postinfection. Serum was collected for antibody analysis and blood cultured for the detection of live spirochetes by inoculating 5 ml of BSK II medium with 50 μl of blood from each infected mouse and cultured for 2 weeks at 34° C. as described above. Also on day 14 postinfection, mice were sacrificed and one hind tibiotarsal joint, heart, bladder, and a 3 mm skin biopsy from the ear were aseptically removed and inoculated into separate tubes containing 6 ml of BSK II medium with antibiotics (50 μg/ml rifampacin and 100 μg/ml phosphomycin (Sigma), and incubated for 2 weeks at 34° C. as described above. Evidence of arthritis was determined by histopathological examination of formalin-fixed hind tibiotarsal joint samples.
Evidence of arthritis was determined by histopathological examination of formalin-fixed hind tibiotarsal joint samples. Tissues for histological examination were embedded in paraffin and stained with hematoxylin and eosin. All sections were examined without knowledge of the vaccination status of the mouse. Arthritis was scored by one of two methods. A positive/negative assessment was used, as well as assignment of an arthritis severity score. Joints were scored according to the levels of infiltrate (neutrophils) as follows: 0, no arthritis, 1, minimal or rare (≦10% tissue involvement); 2, mild (10-20%); […]; and 4, severe (>50%).
A similar trend was also observed for joints examined for arthritis (Table I). DbpA-(SEQ ID 1), P4-(SEQ ID 5), and P5-(SEQ ID 6) immunized mice had the lowest arthritis ratings (0.2, 1.2, and 0.4, respectively) and lowest arthritis incidence (20, 60, and 20%, respectively).

The subject of experiment [2] is B. burgdorferi strain B31. Kind of experiment: Joint cultures for spirochetes after infection of immunized mice. Type of experiment: in vivo. As to conditions: immunized C3H/HeJ mice, joints 14 days post infection. As for the experimental part:
as §1
Low-passage B. burgdorferi strain B31 (passage 5) was used in this study and cultured in BSK II (Barbour-Stoenner-Kelly) medium at 34° C. (22). Bacterial cultures were incubated in CO2-enriched atmosphere in a GasPak chamber (BBL, Baltimore, Md.) containing BBL GasPak Plus envelopes and a GasPak anaerobic indicator (Beckton dickinson, Cockeysville, Md.) until the cells reached log phase. Bacterial counts were determined using dark field microscopy and a Petroff-Hausser chamber.
Mice (15 mice/group) were anesthetized with Metofane (methoxyflurane; Pitman-Moore, Mundelein, Ill.) and 10 mice/ group were infected i.d. at the base of the tail with 10^4 Borrelia in 100 μl of media 6 six weeks after the first immunization. The remaining 5 mice/group were tested for a DTH response to recombinant DbpA. Following infection, mice were bled 7 and 14 days postinfection. […]

In experiment [3] the target is T2, decorin from bovine fetal skin (bovine), P21793.
T2 chain: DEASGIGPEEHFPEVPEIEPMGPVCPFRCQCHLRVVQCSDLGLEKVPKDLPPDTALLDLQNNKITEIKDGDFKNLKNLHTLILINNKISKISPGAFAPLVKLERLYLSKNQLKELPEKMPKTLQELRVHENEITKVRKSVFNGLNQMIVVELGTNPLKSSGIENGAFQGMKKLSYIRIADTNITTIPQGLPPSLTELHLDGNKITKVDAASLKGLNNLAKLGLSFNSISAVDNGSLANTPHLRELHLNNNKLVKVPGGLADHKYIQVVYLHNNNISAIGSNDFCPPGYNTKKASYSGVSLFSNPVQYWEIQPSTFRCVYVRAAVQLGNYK
Nature of the experiment: inhibition ELISA: biotin-conjugated decorin pre-incubated with 5 ug peptide, added to DbpA-coated wells.

In experiment [4] the target is T2, decorin from bovine fetal skin …. The description is as above.

Consider 10 molecules from patent publication US6517838B1, “Decorin binding protein essential peptides and methods of use” (The Texas A&M University System, priority 2000, dated 2003).

Values joined by “and” are separate entries in the source; they are usually repeats but may differ in a detail not shown here. Equal entries are not always repeated. Where two headings read alike, the source gives them in different places. Ends that are not written are not given here.

“P2: overlapping synthetic 25 amino acid peptide of recombinant DbpA, contains a cystine residue (LLISCGLTGATKIKLESSAKAIVD) [Peptide P2]”: the “inhibition of decorin attachment to DbpA-coated wells” value (shortened to “inhibition of decorin attachment”) in the experiment with decorin is 44% and 42%. Further, in the experiment on recombinant DbpA, the “DTH response to DbpA (in words)” value is “no response”. Besides, the “Mean Arthritis Rating” value in experiment [1] is reported as 1.4.
As to “P4 Mod: lysine modified counterpart of P4 (DAFKDKKTGSGVSENPFILEAKVRA; also: chemically modified lysines)”, in experiment [1], the “% Incidence (arthritis)” value is on record as 2.0% and the “Mean Arthritis Rating” value was determined as 2.0.
“P4: synthetic 25 amino acid DbpA peptide that maps to the K82 region (DAFKDKKTGSGVSENPFILEAKVRA) [Peptide P4]”: the “inhibition of decorin attachment” value in the experiment with decorin is on record as 64%. Besides, the “DTH response to DbpA (in words)” value with recombinant DbpA is on record as “response greater than that of control groups but with less intensity”. Moreover, in experiment [1], the “% Incidence (arthritis)” value is reported as 60% and the “Mean Arthritis Rating” value was found to be 1.2.
“P5 Mod: lysine modified counterpart of P5 (AKVRATTVAEKFVIAIEEEATKLKE; also: chemically modified lysines)”: in experiment [1], the “% Incidence (arthritis)” value stood at 100% and the “Mean Arthritis Rating” value turned out to be 3.2.
For the molecule “P5: synthetic 25 amino acid DbpA peptide that maps to the K82 region (AKVRATTVAEKFVIAIEEEATKLKE) [Peptide P5]”, the “inhibition of decorin attachment” value with decorin is recorded as 92%. Also, in the experiment on recombinant DbpA, the “DTH response to DbpA (in words)” value is “significant responses”. In experiment [2], this molecule returned a positive joint cultures of 60%. In addition, in experiment [1] (immunized infected mice), the “arthritis incidence and severity (in words)” value is listed as “lowest”. In experiment [1], the “% Incidence (arthritis)” value is 20% and the “Mean Arthritis Rating” value came out at 0.4.
In the case of “P9 Mod: lysine modified counterpart of P9 (REKLQRVHKKNQDTLKKKNTEDSTAKS; also: chemically modified lysines)”, in experiment [1], the “% Incidence (arthritis)” value is on record as 80% and the “Mean Arthritis Rating” value came to 2.0.
With “P9: synthetic 25 amino acid DbpA peptide containing K163 and K170 (REKLQRVHKKNQDTLKKKNTEDSTAKS) [Peptide P9]”, the “inhibition of decorin attachment” value with decorin is 42% and 43%. In the experiment on recombinant DbpA, the “DTH response to DbpA (in words)” value is “response greater than that of control groups but with less intensity”. Also, the “Mean Arthritis Rating” value in experiment [1] is on record as 1.25.
As to REKLQRVHKKNQDTLKKKNTEDSTAKS (modifications not checked) [DbpA-derived synthetic peptide P9], the figures for the inhibition of decorin attachment to DbpA-coated wells in experiment [3] and in experiment [4] were 43% and 42%, respectively.
In turn, DAFKDKKTGSGVSENPFILEAKVRA (modifications not checked) [DbpA-derived synthetic peptide P4] had an inhibition of decorin attachment to DbpA-coated wells in experiment [4] of 64%.
In turn, AKVRATTVAEKFVIAIEEEATKLKE (modifications not checked) [DbpA-derived synthetic peptide P5] had an inhibition of decorin attachment to DbpA-coated wells in experiment [4] of 92%.
